# Measured values as given in ChEMBL document CHEMBL1127925, “Synthesis and in vitro antibacterial activity of new semi-synthetic noviosylcoumarin antibiotics: chemical modification at the C-3 ester” (1994).
# Assays:
# Assay type in all cases: functional
# Staphylococcus aureus [1] = assay: In vitro antibacterial activity against Staphylococcus aureus A20700 was determined
# Staphylococcus aureus [2] = assay: In vitro antibacterial activity against Staphylococcus aureus A9537 was determined
# [3] = system: Staphylococcus epidermidis; assay: In vitro antibacterial activity against Staphylococcus epidermidis A25441 was determined
SMILES,MIC (Staphylococcus aureus [1]),MIC (Staphylococcus aureus [2]),MIC [3]
COC1C(OC(=O)c2cccn2C)C(O)C(Oc2ccc3c(O)c(NC(=O)c4ccccc4)c(=O)oc3c2C)OC1(C)C (stereo not drawn),8 µg/mL,2 µg/mL,8 µg/mL
COC1C(OC(=O)c2c(C)ncn2Cc2ccccc2)C(O)C(Oc2ccc3c(O)c(NC(=O)c4ccccc4)c(=O)oc3c2C)OC1(C)C (stereo not drawn),4 µg/mL,8 µg/mL,2 µg/mL
COC1C(OC(=O)c2ccco2)C(O)C(Oc2ccc3c(O)c(NC(=O)c4ccccc4)c(=O)oc3c2C)OC1(C)C (stereo not drawn),8 µg/mL,8 µg/mL,8 µg/mL
COC1C(OC(=O)c2ccc(C)[nH]2)C(O)C(Oc2ccc3c(O)c(NC(=O)c4ccccc4)c(=O)oc3c2C)OC1(C)C (stereo not drawn),0.13 µg/mL,0.13 µg/mL,0.13 µg/mL
COC1C(OC(=O)c2[nH]cnc2C)C(O)C(Oc2ccc3c(O)c(NC(=O)c4ccccc4)c(=O)oc3c2C)OC1(C)C.Cc1ccc(S(=O)(=O)O)cc1 (stereo not drawn),16 µg/mL,16 µg/mL,8 µg/mL
COC1C(OC(=O)c2ccc(C)s2)C(O)C(Oc2ccc3c(O)c(NC(=O)c4ccccc4)c(=O)oc3c2C)OC1(C)C (stereo not drawn),4 µg/mL,0.03 µg/mL,8 µg/mL
